Test results from patent US12622878B2, “Cationic lipid having cystine skeleton” (NOF CORPORATION, priority 2020, dated 2026).

Key:
[1] = system: BALB/c mouse; test: In vivo gene expression (luciferase mRNA), organ luminescence by IVIS; conditions: tail vein, 0.05 mg mRNA per kg, 4.5 hr after administration, liver and spleen, FIG. 2
Procedure: (§1) LNP encapsulating mRNA (CleanCap (registered trade mark) FLuc mRNA (TriLink)) that expresses luciferase (cationic lipid:DOPC:Chol:DMG-PEG2k=55:5:40:1 (molar ratio)) was prepared by the method described in [Experimental Example 2], 1.
The prepared each mRNA-encapsulating LNP dispersion was administered from the tail vein of BALB/c mouse (male, 5-week-old). The dose of mRNA was set to 0.05 mg per 1 kg body weight of the mouse, and the dose of the mRNA-encapsulating LNP dispersion was set to 10 μL per 1 g body weight of the mouse. After 4.5 hr from the administration of the mRNA-encapsulating LNP dispersion, a PBS solution of D-luciferin potassium was administered into the abdominal cavity of the mouse. The dose of D-luciferin potassium was set to 3 mg per mouse, and the dose of the PBS solution of D-luciferin potassium was set to 200 μL per mouse. After 15 min from the administration of the PBS solution of D-luciferin potassium, the mouse was euthanized, and the liver, spleen, kidney, heart, and lung were isolated. The luminescence in each organ was quantified using an in vivo imaging system (IVIS) with an exposure of 10 sec. The amount of luminescence in each organ was quantified by image analysis using Live Imaging software attached to IVIS. The amount of luminescence (photons/sec) was calculated from the acquired image and used as an index of gene expression activity. […]

[2] = system: Jurkat cells; test: In vitro gene expression (luciferase mRNA) in Jurkat cells; assay type: cell-based, human; conditions: FLuc mRNA-encapsulating LNP, 0.4 μg mRNA, FIG. 1
Procedure: as §1
Jurkat cells, which are human leukemia T cells, were seeded in a 3.5 cm dish at 2.0×10^5 cells/1.8 mL/Dish 24 hours before transfection. After 24 hr, a medium (RPMI1640) (200 μL) supplemented with D-luciferin was added to the dish at final concentration of 0.1 mM. Each mRNA-encapsulating LNP dispersion (40 to 120 μL) (0.4 μg as mRNA) was added to the aforementioned dish, and the aforementioned dish was set in an incubator luminometer KronosDio. The luminescence intensity of luciferase was measured for 2 min every three hours. The cumulative luciferase luminescence intensity for 24 hr was calculated from the obtained time change of expression. For example, “5.0E+05” means “5.0×10^5”.

[3] = system: HeLa cells; test: In vitro gene expression (luciferase mRNA) in HeLa cells; assay type: cell-based, human; conditions: FLuc mRNA-encapsulating LNP, 0.4 μg mRNA, FIG. 3
Procedure: as §1
HeLa cells, which are human cervical cancer cells, were seeded in a 3.5 cm dish at 5.0×10^4 cells/2 mL/Dish 24 hours before transfection. After 24 hours, the medium was exchanged with a culture medium (D-MEM) containing 0.1 mM D-luciferin. Prepared mRNA-encapsulating LNP was diluted with PBS such that the concentration of mRNA was 8 μg/mL. The diluted mRNA-encapsulating LNP solution (50 μL, mRNA: 0.4 μg) was added to the 3.5 cm dish and set in an incubator luminometer KronosDio. The luminescence intensity of luciferase was measured for 2 min every one hour. The cumulative luciferase luminescence intensity for 24 hr was calculated from the obtained time change of expression. For example, “1.0E+06” means “1.0×10^6”.

[4] = Measurement of Liposomal pKa (TNS fluorescence) of LNP without nucleic acid; assay type: physicochemical; conditions: cationic lipid:DOPC:Chol=52.5:7.5:40 + about 1.5 mol DMG-PEG2k, pH at which relative TNS fluorescence intensity was 50%
Procedure: Lipid nano particles (LNP) without containing nucleic acid were used for the evaluation of Liposomal pKa.
(§2) A 10 mM ethanol solution of cationic lipid, a 5 mM ethanol solution of DOPC, and a 10 mM ethanol solution of Chol were mixed at desired ratio (cationic lipid:DOPC:Chol=52.5:7.5:40 (molar ratio)) in an Eppendorf tube to achieve the total lipid amount of 720 nmol. To the obtained mixture was further added DMG-PEG2k (2 mM ethanol solution) in an amount of about 1.5 mol with respect to the total amount 100 mol of cationic lipid, DOPC, and Chol, and then ethanol was added to prepare an ethanol solution of the lipid (total amount: 360 μL).
(§3) An acidic malic acid buffer (20 mM, pH 3.0) (1080 μL) containing NaCl at a final concentration of 30 mM and an ethanol solution (360 μL) of lipid were each weighed in a syringe. Using an ultra high-speed nanomedicament producing apparatus NanoAssmblr (manufactured by Precision NanoSystems), LNP was prepared under the conditions of addition rate of acidic buffer solution: 3 mL/min, addition rate of ethanol solution of lipid: 1 mL/min, and syringe holder temperature: 25° C., and collected in a 15 mL tube. MES buffer (pH 6.5) (3000 μL) was added to the 15 mL tube, the obtained mixture was transferred to Amicon Ultra 4, and ultrafiltration was performed under centrifugation conditions (25° C., 1000 g, 6 min) to concentrate the mixture to about 100 μL. The obtained concentrate was diluted with PBS to 4 mL, and the mixture was concentrated again under centrifugation conditions (25° C., 1000 g, 6 min), and this operation was performed twice. The obtained concentrate was diluted with PBS to a lipid concentration of 0.5 mM to give a dispersion containing LNP.
20 mM Citrate buffer, sodium phosphate buffer, and tris HCl buffer, each containing NaCl at a final concentration of 150 mM and adjusted to various pHs within the range of pH 3.0 to 10.0, were prepared. TNS (manufactured by Sigma) was diluted with ultrapure water to 0.6 mM. TNS solution (2 μL), dispersions (12 μL) containing LNP prepared in [Experimental Example 1], 1, and buffers adjusted to various pHs (186 μL) were added to a black 96 well plate. The plate was protected from light and shaken at 400 rpm for 10 min. The fluorescence intensity (excitation: 321 nm/emission: 447 nm) was measured using a plate reader (manufactured by TECAN). The relative fluorescence intensity was calculated as a percentage, with the maximum value of the fluorescence intensity in each LNP being 100% and the minimum value being 0%. Furthermore, the pH at which the relative fluorescence intensity was 50% was taken as Liposomal pKa.

[5] = Particle size, PdI and zeta potential of mRNA-encapsulating LNPs by dynamic light scattering; assay type: physicochemical; conditions: FLuc mRNA-encapsulating LNP, cationic lipid:DOPC:Chol=55:5:40 + about 1 mol DMG-PEG2k; for PdI / particle size: dynamic light scattering; for zeta potential: physiological pH
Procedure: as §2, with “lipid:DOPC:Chol=55:5:40” for “lipid:DOPC:Chol=52.5:7.5:40”, “1” for “1.5”
An acidic buffer solution (total amount: 1080 μL) of nucleic acid was prepared by weighing 7.2 μg of mRNA solution (0.6 mg/mL) (CleanCap (registered trade mark) FLuc mRNA (TriLink)) in a 5 mL tube and adding acidic malate buffer (20 mM, pH 3.0) containing NaCl at a final concentration of 30 mM.
as §3, with “buffer solution of nucleic” for “malic”, “acid” for “acid buffer (20 mM, pH 3.0) (1080 μL) containing NaCl at a final concentration of 30 mM”, “solution” for “solution (360 μL)”, “solution of nucleic acid:” for “solution:”, “2” for “0.5”
The particle size, PdI (Polydispersity Index, Polydispersity), and zeta potential of the mRNA-encapsulating LNP prepared by the method of the above-mentioned 1 were measured by a dynamic light scattering method.

pKa [4]	PdI [5]	particle size [5]	zeta potential [5]	Structure (SMILES)	gene expression activity (amount of luminescence in organ) [1]	gene expression activity (cumulative luciferase luminescence intensity for 24 hr) [2]	gene expression activity (cumulative luciferase luminescence intensity for 24 hr) [3]
6.6	0.105	78 nm	0.01 mV	CCCCCCCC/C=C\CCCCCCCC(=O)Oc1ccc(CC(=O)OCCOC(=O)C(CSSCC(NC(=O)CN(C)C)C(=O)OCCOC(=O)Cc2ccc(OC(=O)CCCCCCC/C=C\CCCCCCCC)cc2)NC(=O)CN(C)C)cc1 (stereo not drawn) [Example 1]	superior gene expression activity in the liver and the spleen	superior gene expression activity	superior gene expression activity
6.4	0.073	82 nm	−5.02 mV	CCCCCCCC/C=C\CCCCCCCC(=O)Oc1ccc(CC(=O)OCCOC(=O)C(CSSCC(NC(=O)CN(C)CC)C(=O)OCCOC(=O)Cc2ccc(OC(=O)CCCCCCC/C=C\CCCCCCCC)cc2)NC(=O)CN(C)CC)cc1 (stereo not drawn) [Example 2]	–	–	–
5.9	0.100	111 nm	−11.2 mV	CCCCCCCC/C=C\CCCCCCCC(=O)Oc1ccc(CC(=O)OCCOC(=O)C(CSSCC(NC(=O)CN(C)CCC)C(=O)OCCOC(=O)Cc2ccc(OC(=O)CCCCCCC/C=C\CCCCCCCC)cc2)NC(=O)CN(C)CCC)cc1 (stereo not drawn) [Example 3]	–	–	–
6.3	0.091	81 nm	−7.78 mV	CCCCCCCC/C=C\CCCCCCCC(=O)Oc1ccc(CC(=O)OCCOC(=O)C(CSSCC(NC(=O)CN(CC)CC)C(=O)OCCOC(=O)Cc2ccc(OC(=O)CCCCCCC/C=C\CCCCCCCC)cc2)NC(=O)CN(CC)CC)cc1 (stereo not drawn) [Example 4]	–	–	–

Structure (SMILES)	pKa [4]	PdI [5]	particle size [5]	zeta potential [5]	gene expression activity (amount of luminescence in organ) [1]	gene expression activity (cumulative luciferase luminescence intensity for 24 hr) [2]	gene expression activity (cumulative luciferase luminescence intensity for 24 hr) [3]
CCCCCCCC/C=C\CCCCCCCC(=O)Oc1ccc(CC(=O)OCCOC(=O)C(CSSCC(NC(=O)CN(CCC)CCC)C(=O)OCCOC(=O)Cc2ccc(OC(=O)CCCCCCC/C=C\CCCCCCCC)cc2)NC(=O)CN(CCC)CCC)cc1 (stereo not drawn) [Example 5]	5.3	0.162	112 nm	−12.4 mV	–	–	–
CCCCCCCC/C=C\CCCCCCCC(=O)Oc1ccc(CC(=O)OCCOC(=O)C(CSSCC(NC(=O)CN2CCCCC2)C(=O)OCCOC(=O)Cc2ccc(OC(=O)CCCCCCC/C=C\CCCCCCCC)cc2)NC(=O)CN2CCCCC2)cc1 (stereo not drawn) [Example 7]	6	0.080	126 nm	−10.3 mV	–	–	–
